The source made the active and inactive calls.
Experiments:
[1] = target: Beta-galactosidase (Escherichia coli, UniProt Q8VNN2); assay: Dose response counterscreen for EBI2 assay utilizing the enzyme, b-galactosidase.; assay type: functional
[2] = cells; assay type: functional, cell-based
[3] = target: T1, Nuclear receptor subfamily 0 group B member 1 (Homo sapiens, UniProt P51843); assay type: functional, cell-based;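 further: HEK293T cells transfected with SF-1 and DAX-1 plus StAR promoter luciferase reporter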
T1 sequence (P51843 whole entry): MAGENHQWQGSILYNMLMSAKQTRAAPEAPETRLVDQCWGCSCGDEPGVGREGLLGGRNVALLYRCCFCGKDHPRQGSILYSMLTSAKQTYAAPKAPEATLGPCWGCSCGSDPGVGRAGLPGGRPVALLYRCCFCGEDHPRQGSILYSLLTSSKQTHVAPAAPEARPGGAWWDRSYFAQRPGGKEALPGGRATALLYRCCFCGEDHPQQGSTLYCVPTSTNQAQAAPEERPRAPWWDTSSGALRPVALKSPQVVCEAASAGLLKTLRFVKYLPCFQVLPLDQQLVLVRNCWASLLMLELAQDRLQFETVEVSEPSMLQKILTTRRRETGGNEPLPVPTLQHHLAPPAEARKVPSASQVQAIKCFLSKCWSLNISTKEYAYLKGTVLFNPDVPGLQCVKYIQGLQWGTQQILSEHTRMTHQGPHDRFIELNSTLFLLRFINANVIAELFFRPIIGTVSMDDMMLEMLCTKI

[4] = microbe, parasite or virus in culture; assay type: functional; details: Mycobacterium tuberculosis
[5] = target: Disintegrin and metalloproteinase domain-containing protein 17 (Homo sapiens, UniProt P78536); assay: exosite inhibitors of ADAM17, dose response, biochemical (AID 743260)
[6] = ADAM10 protease inhibitors, dose response, selectivity assay for ADAM17 exosite inhibitor project, biochemical, FRET peptide substrate, recombinant human ADAM10 (AID 743259);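 further: ADAM10 enzyme cleaving a FRET peptide substrate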
[7] = target: Long-chain-fatty-acid--AMP ligase FadD28 (Mycobacterium tuberculosis, UniProt P9WQ59); assay: Fluorescence polarization aasay to screen for inhibitors that compete for the binding of FadD28 to a bisubstrate Measured in Biochemical System Using Plate Reader - 2147-01_Inhibitor_Dose_CherryPick_Activity.; assay type: functional, Mycobacterium tuberculosis H37Rv
[8] = target: T2, Fatty acid synthase (Homo sapiens, UniProt P49327); assay: FAS thioesterase domain inhibitors, dose response, biochemical, endpoint fluorescence intensity, uHTS hits (AID 624327); assay type: functional;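 further: fluorescence from hydrolysis of an O-methyl fluorescein acyl ester substrate by the enzyme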
[9] = target: T2, Fatty acid synthase; assay: FAS thioesterase domain inhibitors, dose response, biochemical, kinetic fluorescence intensity (AID 624326); assay type: functional;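 further: rate of fluorescence rise from hydrolysis of a fluorogenic O-methyl fluorescein ester substrate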
[10] = target: fMet-Leu-Phe receptor (Homo sapiens, UniProt P21462); assay: FPR ligands, dose response (AID 519); assay type: functional
[11] = target: Photoreceptor-specific nuclear receptor (Homo sapiens, UniProt Q9Y5X4); assay type: functional, cell-based;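 further: CHO-S cells with Gal4-NCOR and VP16-NR2E3 two-hybrid luciferase reporter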
[12] = target: T3, Methionyl-tRNA synthetase, putative (Trypanosoma brucei brucei, UniProt Q38C91); assay type: functional, Trypanosoma brucei brucei strain 927/4 GUTat10.1
T3 sequence (Q38C91 whole entry): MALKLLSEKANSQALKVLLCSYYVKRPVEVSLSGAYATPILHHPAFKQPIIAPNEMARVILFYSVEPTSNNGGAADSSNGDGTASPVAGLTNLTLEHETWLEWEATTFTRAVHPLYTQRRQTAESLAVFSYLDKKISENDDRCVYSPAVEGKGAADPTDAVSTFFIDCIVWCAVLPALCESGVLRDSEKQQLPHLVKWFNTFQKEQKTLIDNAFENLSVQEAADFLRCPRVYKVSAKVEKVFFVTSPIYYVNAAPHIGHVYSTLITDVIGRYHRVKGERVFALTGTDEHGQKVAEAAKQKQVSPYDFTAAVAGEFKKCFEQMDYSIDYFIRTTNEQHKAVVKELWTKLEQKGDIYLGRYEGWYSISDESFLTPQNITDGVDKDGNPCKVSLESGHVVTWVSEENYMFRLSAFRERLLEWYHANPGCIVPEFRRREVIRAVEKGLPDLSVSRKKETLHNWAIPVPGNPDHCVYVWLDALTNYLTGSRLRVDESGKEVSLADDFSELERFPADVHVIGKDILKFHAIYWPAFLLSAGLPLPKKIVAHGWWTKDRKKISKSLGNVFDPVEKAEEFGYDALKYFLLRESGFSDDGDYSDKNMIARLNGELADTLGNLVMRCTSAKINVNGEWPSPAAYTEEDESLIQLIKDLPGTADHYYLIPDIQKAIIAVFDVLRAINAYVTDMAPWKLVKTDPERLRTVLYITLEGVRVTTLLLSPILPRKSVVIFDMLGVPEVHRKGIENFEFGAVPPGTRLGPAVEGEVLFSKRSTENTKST

[13] = Counterscreen for inhibitors of Trypanosoma brucei methionyl tRNA synthetase (MetRS): Luminescence-based cell-based high throughput dose response assay to identify compounds that are cytotoxic to Jurkat human T lymphocyte cells.; assay type: functional
[14] = target: T3, Methionyl-tRNA synthetase, putative; assay type: functional, Trypanosoma brucei brucei strain 927/4 GUTat10.1; remark: listed apart in the source
[15] = non-specific cell cytotoxicity, dose response, cytotoxicity control for PAX8 inhibitor project, plate reader, dry powder samples (AID 743021); assay type: functional, cell-based
[16] = target: Glucose-6-phosphate 1-dehydrogenase (Homo sapiens, UniProt P11413); assay: human G6PD enzyme inhibitors, dose response, selectivity assay for P. falciparum G6PD inhibitor project, biochemical, fluorescence (AID 504792); assay type: functional
[17] = target: T4, Endoribonuclease toxin MazF (Escherichia coli K-12, UniProt P0AE70); assay: MazF toxin RNase activators, dose response, biochemical, fluorescence, single-stranded RNA substrate, uHTS hits (AID 588481); assay type: functional
T4 sequence (P0AE70 whole entry): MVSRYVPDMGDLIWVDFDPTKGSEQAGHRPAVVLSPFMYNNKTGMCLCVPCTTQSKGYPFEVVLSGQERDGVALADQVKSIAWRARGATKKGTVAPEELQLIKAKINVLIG

[18] = target: T4, Endoribonuclease toxin MazF; assay: fluorescent RNA oligo signal without MazF, dose response, counter-screen for MazEF activator project, biochemical, fluorescence, single-stranded RNase substrate (AID 588502); assay type: functional
[19] = target: T5, Caspase-6 (Homo sapiens, UniProt P55212); assay: human caspase-6 inhibitors, dose response, biochemical, VEID-R110 fluorescence, cherry-pick (AID 720632)
T5 sequence (P55212 whole entry): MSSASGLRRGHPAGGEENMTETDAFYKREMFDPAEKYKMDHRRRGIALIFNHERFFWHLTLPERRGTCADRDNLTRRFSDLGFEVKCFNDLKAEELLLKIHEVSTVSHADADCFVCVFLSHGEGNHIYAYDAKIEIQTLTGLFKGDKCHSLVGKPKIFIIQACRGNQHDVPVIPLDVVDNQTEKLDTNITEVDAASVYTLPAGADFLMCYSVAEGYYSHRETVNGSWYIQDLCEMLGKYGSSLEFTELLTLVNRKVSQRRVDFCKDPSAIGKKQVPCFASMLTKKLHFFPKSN

[20] = target: T6, Caspase-7 (Homo sapiens, UniProt P55210); assay: human caspase-7 inhibitors, dose response, selectivity assay for caspase-6 inhibitor project, biochemical, DEVD-R110 fluorescence, cherry-pick (AID 743295)
T6 sequence (P55210 whole entry): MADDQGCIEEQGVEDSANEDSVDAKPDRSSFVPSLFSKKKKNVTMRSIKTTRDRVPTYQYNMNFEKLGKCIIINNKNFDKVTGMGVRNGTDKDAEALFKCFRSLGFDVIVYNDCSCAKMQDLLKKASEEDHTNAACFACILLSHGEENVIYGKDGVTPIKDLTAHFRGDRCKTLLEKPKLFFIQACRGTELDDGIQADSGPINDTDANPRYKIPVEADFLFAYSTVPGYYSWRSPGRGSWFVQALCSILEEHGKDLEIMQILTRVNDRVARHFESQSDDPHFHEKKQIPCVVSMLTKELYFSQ

Sequence of Beta-galactosidase (Q8VNN2 whole entry): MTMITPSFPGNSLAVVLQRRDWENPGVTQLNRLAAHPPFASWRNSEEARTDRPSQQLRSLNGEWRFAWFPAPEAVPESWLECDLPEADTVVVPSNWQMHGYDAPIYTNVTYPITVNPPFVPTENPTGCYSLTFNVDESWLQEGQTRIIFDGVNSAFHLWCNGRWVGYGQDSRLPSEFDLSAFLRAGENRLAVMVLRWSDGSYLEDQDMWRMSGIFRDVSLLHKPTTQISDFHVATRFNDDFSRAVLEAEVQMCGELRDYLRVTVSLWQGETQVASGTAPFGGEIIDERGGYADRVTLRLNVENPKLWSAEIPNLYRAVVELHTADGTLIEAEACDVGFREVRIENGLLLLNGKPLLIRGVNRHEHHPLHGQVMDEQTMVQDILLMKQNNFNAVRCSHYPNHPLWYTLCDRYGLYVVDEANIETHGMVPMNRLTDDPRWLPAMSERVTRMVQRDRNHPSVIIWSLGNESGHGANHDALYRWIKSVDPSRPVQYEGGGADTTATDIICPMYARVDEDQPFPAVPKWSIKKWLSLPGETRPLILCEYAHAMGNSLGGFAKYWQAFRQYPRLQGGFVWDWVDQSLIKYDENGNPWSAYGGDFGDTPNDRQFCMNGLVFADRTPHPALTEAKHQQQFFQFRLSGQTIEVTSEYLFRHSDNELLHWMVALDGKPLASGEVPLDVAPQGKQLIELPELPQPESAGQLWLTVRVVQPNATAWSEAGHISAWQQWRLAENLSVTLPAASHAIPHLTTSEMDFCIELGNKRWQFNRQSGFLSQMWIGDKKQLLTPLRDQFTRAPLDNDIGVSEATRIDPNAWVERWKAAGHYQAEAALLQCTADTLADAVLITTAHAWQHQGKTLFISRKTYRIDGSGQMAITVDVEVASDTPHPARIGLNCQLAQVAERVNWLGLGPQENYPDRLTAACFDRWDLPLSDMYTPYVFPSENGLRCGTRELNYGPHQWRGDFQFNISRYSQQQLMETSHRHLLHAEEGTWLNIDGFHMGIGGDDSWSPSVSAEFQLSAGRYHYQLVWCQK
T2 sequence (P49327 whole entry, the tested form may be a part): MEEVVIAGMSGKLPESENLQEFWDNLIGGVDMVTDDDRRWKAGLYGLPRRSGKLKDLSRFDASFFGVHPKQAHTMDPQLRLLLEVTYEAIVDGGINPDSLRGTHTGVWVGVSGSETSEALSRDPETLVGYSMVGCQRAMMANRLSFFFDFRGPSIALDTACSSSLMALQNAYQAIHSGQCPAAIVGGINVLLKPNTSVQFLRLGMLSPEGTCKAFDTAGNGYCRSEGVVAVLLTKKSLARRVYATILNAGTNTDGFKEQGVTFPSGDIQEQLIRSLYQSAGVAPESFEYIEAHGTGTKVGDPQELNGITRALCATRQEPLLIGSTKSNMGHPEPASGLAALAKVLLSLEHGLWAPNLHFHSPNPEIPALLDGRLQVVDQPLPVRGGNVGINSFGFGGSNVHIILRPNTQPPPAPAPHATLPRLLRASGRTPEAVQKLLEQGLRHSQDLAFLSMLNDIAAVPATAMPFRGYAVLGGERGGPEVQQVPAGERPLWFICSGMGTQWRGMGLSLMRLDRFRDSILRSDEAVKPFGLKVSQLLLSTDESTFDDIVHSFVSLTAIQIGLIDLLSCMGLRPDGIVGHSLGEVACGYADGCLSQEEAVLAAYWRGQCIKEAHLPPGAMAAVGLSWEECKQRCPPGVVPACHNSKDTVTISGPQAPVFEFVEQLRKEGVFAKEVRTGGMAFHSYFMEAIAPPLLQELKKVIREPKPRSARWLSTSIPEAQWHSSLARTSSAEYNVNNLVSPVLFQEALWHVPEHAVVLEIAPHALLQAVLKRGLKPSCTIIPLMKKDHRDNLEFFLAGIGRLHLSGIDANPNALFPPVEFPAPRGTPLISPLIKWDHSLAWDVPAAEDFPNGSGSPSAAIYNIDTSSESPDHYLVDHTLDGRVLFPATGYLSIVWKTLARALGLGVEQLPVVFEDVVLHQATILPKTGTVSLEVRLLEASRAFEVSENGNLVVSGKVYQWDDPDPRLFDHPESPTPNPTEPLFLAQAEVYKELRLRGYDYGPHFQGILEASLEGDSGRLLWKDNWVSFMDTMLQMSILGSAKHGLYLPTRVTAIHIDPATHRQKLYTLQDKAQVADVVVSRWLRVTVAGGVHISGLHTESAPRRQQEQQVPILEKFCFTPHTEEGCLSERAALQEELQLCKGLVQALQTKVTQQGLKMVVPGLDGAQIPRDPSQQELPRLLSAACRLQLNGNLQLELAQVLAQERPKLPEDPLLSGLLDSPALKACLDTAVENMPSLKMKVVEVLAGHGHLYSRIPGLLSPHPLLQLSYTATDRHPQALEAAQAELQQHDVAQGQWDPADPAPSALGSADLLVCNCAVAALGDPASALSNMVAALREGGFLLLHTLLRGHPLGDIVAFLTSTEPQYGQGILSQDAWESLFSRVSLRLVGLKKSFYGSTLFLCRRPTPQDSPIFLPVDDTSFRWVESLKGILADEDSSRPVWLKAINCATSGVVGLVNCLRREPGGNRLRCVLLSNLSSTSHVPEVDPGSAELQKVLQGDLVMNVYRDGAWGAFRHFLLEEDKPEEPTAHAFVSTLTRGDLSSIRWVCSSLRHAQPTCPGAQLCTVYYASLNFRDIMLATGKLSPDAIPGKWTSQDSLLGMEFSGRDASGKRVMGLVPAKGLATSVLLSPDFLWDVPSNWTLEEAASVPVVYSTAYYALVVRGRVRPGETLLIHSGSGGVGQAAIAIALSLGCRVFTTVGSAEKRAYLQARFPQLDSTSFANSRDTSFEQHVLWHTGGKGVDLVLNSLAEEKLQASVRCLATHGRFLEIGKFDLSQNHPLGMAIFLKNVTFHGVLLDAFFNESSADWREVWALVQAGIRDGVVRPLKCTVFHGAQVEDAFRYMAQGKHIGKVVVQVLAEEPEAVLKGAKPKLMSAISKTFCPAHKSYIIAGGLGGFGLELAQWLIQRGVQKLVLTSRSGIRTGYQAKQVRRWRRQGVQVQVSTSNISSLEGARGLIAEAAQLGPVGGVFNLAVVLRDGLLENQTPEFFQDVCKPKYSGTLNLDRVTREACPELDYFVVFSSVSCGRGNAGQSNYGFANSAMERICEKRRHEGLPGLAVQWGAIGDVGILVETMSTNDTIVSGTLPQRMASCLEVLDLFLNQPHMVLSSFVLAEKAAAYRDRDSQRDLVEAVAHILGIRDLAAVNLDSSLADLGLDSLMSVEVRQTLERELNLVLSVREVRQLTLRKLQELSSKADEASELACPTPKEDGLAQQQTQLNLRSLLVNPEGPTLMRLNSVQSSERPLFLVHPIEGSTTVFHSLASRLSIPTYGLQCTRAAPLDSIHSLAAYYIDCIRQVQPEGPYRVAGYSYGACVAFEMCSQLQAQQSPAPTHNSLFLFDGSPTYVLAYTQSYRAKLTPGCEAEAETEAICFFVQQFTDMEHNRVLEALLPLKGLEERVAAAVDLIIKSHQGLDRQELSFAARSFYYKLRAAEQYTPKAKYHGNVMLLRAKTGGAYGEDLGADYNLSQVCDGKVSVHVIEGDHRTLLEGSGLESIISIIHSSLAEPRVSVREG
Sequence of Disintegrin and metalloproteinase domain-containing protein 17 (P78536 whole entry, the tested form may be a part): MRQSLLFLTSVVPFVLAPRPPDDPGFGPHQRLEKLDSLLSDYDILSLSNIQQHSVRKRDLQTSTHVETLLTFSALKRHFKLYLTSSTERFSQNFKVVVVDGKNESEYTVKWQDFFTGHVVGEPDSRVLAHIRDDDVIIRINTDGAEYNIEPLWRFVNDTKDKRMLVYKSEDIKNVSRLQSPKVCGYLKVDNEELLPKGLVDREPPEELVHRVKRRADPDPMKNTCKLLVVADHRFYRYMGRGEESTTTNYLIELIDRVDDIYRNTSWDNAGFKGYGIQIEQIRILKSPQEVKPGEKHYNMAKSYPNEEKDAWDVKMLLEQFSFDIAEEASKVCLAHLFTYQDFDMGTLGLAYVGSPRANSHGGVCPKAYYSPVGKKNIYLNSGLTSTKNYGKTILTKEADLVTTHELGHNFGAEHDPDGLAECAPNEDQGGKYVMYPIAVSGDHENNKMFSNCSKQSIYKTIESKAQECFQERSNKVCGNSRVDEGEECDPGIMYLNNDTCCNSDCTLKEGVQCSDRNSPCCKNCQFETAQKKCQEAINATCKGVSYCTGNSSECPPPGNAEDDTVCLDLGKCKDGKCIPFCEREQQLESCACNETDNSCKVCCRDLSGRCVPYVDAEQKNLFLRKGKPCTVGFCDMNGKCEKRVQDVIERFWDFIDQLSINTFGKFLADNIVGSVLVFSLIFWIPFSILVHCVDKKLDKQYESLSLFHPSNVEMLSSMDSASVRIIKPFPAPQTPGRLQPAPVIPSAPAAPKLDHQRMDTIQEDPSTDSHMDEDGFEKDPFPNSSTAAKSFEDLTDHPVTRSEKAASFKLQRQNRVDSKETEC
Sequence of fMet-Leu-Phe receptor (P21462 whole entry, the tested form may be a part): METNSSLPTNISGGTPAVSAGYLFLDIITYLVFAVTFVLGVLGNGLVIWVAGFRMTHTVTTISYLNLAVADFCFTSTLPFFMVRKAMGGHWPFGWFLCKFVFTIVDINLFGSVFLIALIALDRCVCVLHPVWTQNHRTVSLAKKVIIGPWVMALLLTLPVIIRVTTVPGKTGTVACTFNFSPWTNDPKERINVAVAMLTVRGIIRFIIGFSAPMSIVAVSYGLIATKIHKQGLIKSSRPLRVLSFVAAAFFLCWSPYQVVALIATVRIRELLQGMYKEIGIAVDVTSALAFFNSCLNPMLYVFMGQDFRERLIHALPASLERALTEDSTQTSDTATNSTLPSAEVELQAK
Sequence of Photoreceptor-specific nuclear receptor (Q9Y5X4 whole entry, the tested form may be a part): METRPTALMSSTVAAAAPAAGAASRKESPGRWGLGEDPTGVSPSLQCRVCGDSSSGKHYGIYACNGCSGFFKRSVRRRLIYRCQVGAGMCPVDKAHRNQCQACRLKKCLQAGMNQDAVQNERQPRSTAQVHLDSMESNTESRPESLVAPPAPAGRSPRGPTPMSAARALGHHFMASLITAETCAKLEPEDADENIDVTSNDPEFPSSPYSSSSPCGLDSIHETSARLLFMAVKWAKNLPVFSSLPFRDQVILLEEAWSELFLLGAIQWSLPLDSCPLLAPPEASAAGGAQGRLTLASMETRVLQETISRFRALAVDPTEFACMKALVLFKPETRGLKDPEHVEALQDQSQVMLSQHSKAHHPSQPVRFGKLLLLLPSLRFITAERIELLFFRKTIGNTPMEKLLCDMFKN

With `Cc1ccc(NC2=CC(=O)CC(c3ccc(Cl)cc3)C2)cc1` (stereo not drawn) as the compound, how does the IC50 [1] read?
Its IC50 is > 80 µM (inactive).

What does the source list for `CC1=C(C(=O)Nc2ccc(CC(=O)NCc3ccc(OC(C)C)cc3)cc2)SCCO1`?
IC50 [2]: > 67.5 µM (inactive); IC50 [3]: > 67.5 µM (inactive)

With `CCOc1ccc(-c2[nH]ncc2-c2ccc(Cl)cc2)c(O)c1` as the compound, how does the CC50 [4] read?
Its CC50 is > 40 µM (active).

What about the IC50 [5] of the same compound?
The IC50 was > 69.5 µM (inactive).

What about the IC50 [6] of the same compound?
The IC50 was 23.7 µM (inactive).

What does the source list for `O=C(CN1C(=O)S/C(=C\c2ccccc2)C1=O)Nc1cc([N+](=O)[O-])ccc1O`?
AC50 [7]: 61.2 µM (active); IC50 [8]: 2.94 µM (active); IC50 [9]: 1.83 µM (active)

For `CCc1cc(C(=O)OC)c(NC(=O)C2CC(=O)NN2Cc2ccccc2)s1` (stereo not drawn), which IC50 [5] is on record?
Its IC50 is > 69.5 µM (inactive).

And the IC50 [6]?
Its IC50 is > 69.5 µM (inactive).

For `CCOc1ccc(C(=O)C2=C(O)C(=O)N(CC3CCCO3)C2c2ccc(C)o2)cc1` (stereo not drawn), which Ki [10] is on record?
The Ki was 21.1 µM (inactive).

With `COc1cccc(NC(=O)CSc2nc3cc(Br)c[nH]c-3n2)c1` as the compound, how does the IC50 [11] read?
Its IC50 is 0.377 µM (active).

What about the IC50 [12] of the same compound?
Its IC50 is 4.03 µM (active).

And the IC50 [13]?
Its IC50 is 83.3 µM (inactive).

And the IC50 [14]?
Its IC50 is 2 µM (active).

For `COc1ccccc1N1CCN(C(=O)c2cc(-c3ccc(F)cc3)[nH]c2C)CC1`, which IC50 [1] is on record?
Its IC50 is > 80 µM (inactive).

With `Cn1c(SCC(=O)c2ccccc2)nnc1-c1ccccn1` as the compound, how does the AC50 [15] read?
Its AC50 is 51 µM (active).

Which IC50 [16] does the source give for `Cc1ccc([S+]([O-])c2ccc([N+](=O)[O-])c3nonc23)cc1` (stereo not drawn) here?
The IC50 was 42.3 µM (inactive).

What about the EC50 [17] of the same compound?
The EC50 was > 99 µM (inactive).

What about the EC50 [18] of the same compound?
The EC50 was > 99 µM (inactive).

What about the AC50 [19] of the same compound?
Its AC50 is 2.56 µM (active).

What about the AC50 [20] of the same compound?
Its AC50 is > 70 µM (inactive).

Source: ChEMBL document CHEMBL1201862, “PubChem BioAssay data set” (2004)
